Results from patent US5496853A, “Benzoxa condensed ring compounds, process for producing the same and pharmaceutical composition comprising the same” (Teijin Limited, priority 1990, dated 1996).
Where a name gives a salt, the structure may show the parent alone.

The molecules below were run on serum cholesterol (assay: percentage change of serum cholesterol in cholesterol-fed rats). Settings: Rattus norvegicus, 72 h; 1 mg/kg oral, once a day for three days, cholesterol-enriched feed, vs control.
Assay type: in vivo, Male Wistar rats
From the text: Measurement of percentage change of serum cholesterol
Male Wistar rats having a weight of 200 g were preliminarily bred for 7 days while they freely ingested a normal feed (CE-2 manufactured by CLEA Japan Inc.).
Thereafter, they were bred for 3 days while they freely ingested a feed enriched with cholesterol and fat (2% cholesterol, 1% cholic acid, 20% casein, 45% fine granulated sugar, 12% coconut oil, 4% KC flock, 1% mixed vitamin, 7% mixed mineral and 8% dried fish powder; a product of CLEA Japan Inc.). During the cholesterol loading period, the test compound of the present invention was orally administered to the above test animals at a dose of 0.1 to 10 mg per kg of the weight once a day for three days. On the other hand, the excipient alone was administered to the control animals.
After 8 hrs from the last administration, the test animals were fasted. 16 hr after the initiation of the fasting, these test animals were slaughtered. The serum cholesterol level was measured for each animal.
The results were compared with those of the control and are given as percentage serum cholesterol (%) in Table 3.
Percentage change of serum cholesterol (%)={(A-B)/B}×100
wherein A represents the total cholesterol level of serum in the group of rats to which the test compound was administered; and B represents the total cholesterol level of serum in the control group of rats.

Row | Compound | change in vivo at 1 mg/kg
1 | CCCCCCCCCCC(C)(C)C(=O)Nc1c(C)cc(C)c2c1OC(C)(C)C2 [Ex. 5, N-(2,2,4,6-tetramethyl-2,3-dihydrobenzofuran-7-yl)-2,2-dimethyldodecaneamide] | -61%
2 | CCCCCCCCCCC(C)(C)C(=O)Nc1c(C)c(N(C)C)c(C)c2c1OC(C)(C)C2 [Ex. 8, N-(5-dimethylamino-2,2,4,6-tetramethyl-2,3-dihydrobenzofuran-7-yl)-2,2-dimethyldodecaneamide] | -71%
3 | CCCOCCCCCCOc1ccc(C(=O)Nc2c(C)cc(C)c3c2OC(C)(C)C3)cc1 [Ex. 29] | -23%
4 | Cc1cc(C)c(NC(=O)C(C)(C)CCCCCc2ccccc2)c2c1CC(C)(C)O2 [Ex. 42] | -44%
5 | Cc1cc(C)c(NC(=O)C(C)(C)CCCc2ccc(CC(C)C)cc2)c2c1CC(C)(C)O2 [Ex. 45] | -58%
6 | Cc1cc(C)c(NC(=O)C(C)(C)CCCCCCOCC(C)C)c2c1CC(C)(C)O2 [Ex. 49] | -50%
7 | Cc1cc(C)c(NC(=O)C(C)(C)CCCCOc2ccc(Cl)cc2)c2c1CC(C)(C)O2 [Ex. 59] | -43%
8 | Cc1cc(C)c(NC(=O)C(C)(C)CCCCCOc2ccc(Cl)cc2)c2c1CC(C)(C)O2 [Ex. 61] | -64%
9 | Cc1ccc(OCCCCCC(C)(C)C(=O)Nc2c(C)cc(C)c3c2OC(C)(C)C3)cc1 [Ex. 62] | -18%
10 | Cc1cc(C)c(NC(=O)C(C)(C)CCCCCCOc2ccc(Cl)cc2)c2c1CC(C)(C)O2 [Ex. 68] | -75%
11 | Cc1cc(C)c(NC(=O)C(C)(C)CCCCCCOc2ccc(N(C)C)cc2)c2c1CC(C)(C)O2 [Ex. 71] | -49%

Same assay, conditions: Rattus norvegicus, 72 h; 10 mg/kg oral, once a day for three days, cholesterol-enriched feed, vs control

Row | Compound | change in vivo at 10 mg/kg
12 | CCCCCCCCCCC1(C(=O)Nc2c(C)c(C)cc3nc(-c4ccccc4)oc23)CCCC1 [Ex. 20] | -46%
13 | CCCCCCCCCCC1(C(=O)Nc2c(C)ccc3c2OC(C)(C)C3)CCCC1 [Ex. 36] | -52%
14 | Cc1cc(C)c(NC(=O)C(C)(C)CCCCCCOCC(C)(C)C)c2c1CC(C)(C)O2 [Ex. 50] | -54%
15 | Cc1cc(C)c(NC(=O)C(C)(C)CCCCOCc2ccccc2)c2c1CC(C)(C)O2 [Ex. 53] | -50%
16 | Cc1cc(C)c(NC(=O)C(C)(C)CCCCOc2ccc(C(C)(C)C)cc2)c2c1CC(C)(C)O2 [Ex. 58] | -27%
17 | Cc1cc(C)c(NC(=O)C(C)(C)CCCCN2CCN(Cc3ccccc3)CC2)c2c1CC(C)(C)O2 [Ex. 78] | -43%

What follows are molecules tested against T1, ACAT (Oryctolagus cuniculus, UniProt G1SFD9) (assay: ACAT enzyme inhibitory activity of rabbit intestinal mucosa). Settings: rabbit intestinal mucosa microsome, [1-14C] oleoyl CoA, 37° C., pH 7.4.
T1 construct: from tissue; host or cells: domestic rabbit intestinal mucosa, microsome fraction (105,000×g precipitate)
T1 sequence (G1SFD9 1-524): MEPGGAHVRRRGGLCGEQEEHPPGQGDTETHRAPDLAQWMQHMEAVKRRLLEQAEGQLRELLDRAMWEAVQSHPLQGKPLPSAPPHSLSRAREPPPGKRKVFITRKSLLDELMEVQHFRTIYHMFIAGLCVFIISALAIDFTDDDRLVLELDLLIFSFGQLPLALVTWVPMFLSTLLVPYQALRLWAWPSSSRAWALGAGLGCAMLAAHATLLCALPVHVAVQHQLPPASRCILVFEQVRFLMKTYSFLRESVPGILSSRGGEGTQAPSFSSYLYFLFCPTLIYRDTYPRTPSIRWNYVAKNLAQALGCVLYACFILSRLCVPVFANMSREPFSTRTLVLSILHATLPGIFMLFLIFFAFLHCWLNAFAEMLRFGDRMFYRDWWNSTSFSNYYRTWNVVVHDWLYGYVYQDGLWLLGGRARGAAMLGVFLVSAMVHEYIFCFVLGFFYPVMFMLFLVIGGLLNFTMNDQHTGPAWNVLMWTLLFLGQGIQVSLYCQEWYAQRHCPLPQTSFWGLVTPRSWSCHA
Assay type: biochemical
Description: Measurement of ACAT enzyme inhibitory activity (measurement of ACAT enzyme inhibitory activity of rabbit intestinal mucosa)
Preparation of a domestic rabbit intestinal mucosa microsome and measurement of the ACAT enzyme activity were conducted by slightly modifying a method established by Salone and Field (see Biochemica et Biophysica, vol. 712, 557 (1982).
The supernatant was further centrifuged at 105,000×g and a temperature of 4° C. for one hour to provide a precipitate. The precipitate was resuspended in the buffer A to provide a microsome fraction.
A 1 %v/v dimethylsulfoxide solution of each specimen compound in a predetermined concentration was added to the buffer A containing 43 μM serum albumin and 0.5 mg/ml microsome fraction, and the mixture was heated at 37° C. for 5 min.
Then, 43 μM oleoyl CoA containing [1^-14 C] oleoyl CoA (3.7 kB) was added thereto, the mixture was heated at 37° C. for 10 rain, and chloroform/methanol (2/1) containing 10 mg/ml cholesteryl oleate was added thereto to terminate the reaction.
0.111 kB of [^3 H] cholesteryl oleate and 1N hydrochloric acid were added thereto, and the mixture was stirred. The cholesteryl oleate extracted into the chloroform layer was isolated by thin-layer chromatography, and the radioactivity was measured as the ACAT activity.

Row | IC50 | Compound
18 | 830 nM | CCCCCCCCCCC1(C(=O)Nc2cccc3nc(-c4cccnc4)oc23)CCCC1 [Ex. 2, N-[2-(3-pyridyl)benzoxazol-7-yl]-1-decylcyclopentanecarboxamide]
19 | 340 nM | Cc1ccc2c(c1NC(=O)NCC1(c3ccccc3)CCCC1)OC(C)(C)C2 [Ex. 3]
20 | 19 nM | CCCCCCCCCCC(C)(C)C(=O)Nc1c(C)c([N+](=O)[O-])c(C)c2c1OC(C)(C)C2 [Ex. 6, N-(2,2,4,6-tetramethyl-5-nitro-2,3-dihydrobenzofuran-7-yl)-2,2-dimethyldodecaneamide]
21 | 230 nM | Cc1cc(C)c(NC(=O)C(C)(C)CCCCCOc2ccc([N+](=O)[O-])cc2)c2c1CC(C)(C)O2 [Ex. 10, N-(2,2,4,6-tetramethyl-2,3-dihydrobenzofuran-7-yl)-[2,2-dimethyl-7-(4-nitrophenyloxy)]heptaneamide]
22 | 400 nM | Cc1cc2nc(-c3ccccc3)oc2c(NC(=O)NCC2(c3ccccc3)CCCC2)c1C [Ex. 13]
23 | 500 nM | CCCCCCCCCCC1(C(=O)Nc2cccc3nc(-c4ccccc4)oc23)CCCC1 [Ex. 18]
24 | 220 nM | CCCCCCCCCCCCNC(=O)Nc1c(C)ccc2c1OC(C)(C)C2 [Ex. 23]
25 | 110 nM | CCCCCCCCCCNc1ccc(C(=O)Nc2c(C)cc(C)c3c2OC(C)(C)C3)cc1 [Ex. 33]
26 | 340 nM | Cc1ccc2c(c1NC(=O)C(C)(C)CCCCOc1ccc(C(C)(C)C)cc1)OC(C)(C)C2 [Ex. 37]
27 | 180 nM | Cc1cc(C)c(NC(=O)C(C)(C)CCCCCCBr)c2c1CC(C)(C)O2 [Ex. 38]
28 | 72 nM | CCCCCCCCC(C)(C)C(=O)Nc1c(C)cc(C)c2c1OC(C)(C)C2 [Ex. 39]
29 | 66 nM | CCCc1ccc(CCCC(C)(C)C(=O)Nc2c(C)cc(C)c3c2OC(C)(C)C3)cc1 [Ex. 44]
30 | 28 nM | Cc1cc(C)c(NC(=O)C(C)(C)CCCc2ccc(CC(C)C)cc2)c2c1CC(C)(C)O2 [Ex. 45]
31 | 34 nM | CCCCCCOc1ccc(CCCC(C)(C)C(=O)Nc2c(C)cc(C)c3c2OC(C)(C)C3)cc1 [Ex. 46]
32 | 190 nM | Cc1cc(C)c(NC(=O)C(C)(C)CCCCOCCCC(C)C)c2c1CC(C)(C)O2 [Ex. 47]
33 | 57 nM | Cc1cc(C)c(NC(=O)C(C)(C)CCCCCCOCCCC(C)C)c2c1CC(C)(C)O2 [Ex. 48]
34 | 45 nM | Cc1cc(C)c(NC(=O)C(C)(C)CCCCCCOCC(C)(C)C)c2c1CC(C)(C)O2 [Ex. 50]
35 | 100 nM | Cc1cc(C)c(NC(=O)C(C)(C)CCCCCOCCc2ccccc2)c2c1CC(C)(C)O2 [Ex. 54]
36 | 170 nM | Cc1cc(C)c(NC(=O)C(C)(C)CCCCCOCCOC(C)C)c2c1CC(C)(C)O2 [Ex. 55]

Row | IC50 | Compound
37 | 330 nM | COCCCCCCC(C)(C)C(=O)Nc1c(C)cc(C)c2c1OC(C)(C)C2 [Ex. 56]
38 | 170 nM | Cc1cc(C)c(NC(=O)C(C)(C)CCCCOc2ccc(C(C)(C)C)cc2)c2c1CC(C)(C)O2 [Ex. 58]
39 | 64 nM | Cc1ccc(OCCCCCC(C)(C)C(=O)Nc2c(C)cc(C)c3c2OC(C)(C)C3)cc1 [Ex. 62]
40 | 220 nM | Cc1cc(C)c(NC(=O)C(C)(C)CCCCCOc2ccc(Cl)cc2Cl)c2c1CC(C)(C)O2 [Ex. 63]
41 | 910 nM | Cc1ccc(OCCCCCC(C)(C)C(=O)Nc2c(C)cc(C)c3c2OC(C)(C)C3)c(C)c1 [Ex. 64]
42 | 86 nM | Cc1cc(C)c(NC(=O)C(C)(C)CCCCCOc2ccc(C(C)C)cc2)c2c1CC(C)(C)O2 [Ex. 65]
43 | 460 nM | Cc1cc(C)c(NC(=O)C(C)(C)CCCCCOc2ccc(N)cc2)c2c1CC(C)(C)O2 [Ex. 66]
44 | 190 nM | Cc1cc(C)c(NC(=O)C(C)(C)CCCCCOc2ccc(N(C)C)cc2)c2c1CC(C)(C)O2 [Ex. 67]
45 | 110 nM | Cc1cc(C)c(NC(=O)C(C)(C)CCCCCCOc2ccc(F)cc2)c2c1CC(C)(C)O2 [Ex. 70]
46 | 130 nM | Cc1cc(C)c(NC(=O)C(C)(C)CCCCCCOc2ccc(N(C)C)cc2)c2c1CC(C)(C)O2 [Ex. 71]
47 | 340 nM | Cc1cc(C)c(NC(=O)C(C)(C)CCCCCCNCc2ccc(Cl)cc2)c2c1CC(C)(C)O2 [Ex. 73 (HCl salt)]
48 | 330 nM | Cc1cc(C)c(NC(=O)C(C)(C)CCCCCCN(C)Cc2ccccc2)c2c1CC(C)(C)O2 [Ex. 74 (HCl salt)]
49 | 120 nM | Cc1cc(C)c(NC(=O)C(C)(C)CCCCCCN(C)Cc2ccc(Cl)cc2)c2c1CC(C)(C)O2 [Ex. 75]
50 | 330 nM | Cc1cc(C)c(NC(=O)C(C)(C)CCCCN2CCN(Cc3ccccc3)CC2)c2c1CC(C)(C)O2 [Ex. 78]
51 | 350 nM | Cc1cc(C)c(NC(=O)C(C)(C)CCCCCCN2CCN(Cc3ccccc3)CC2)c2c1CC(C)(C)O2 [Ex. 79]
52 | 40 nM | CCCCCCCCCCOc1ccc(C(=O)C(C)(C)C(=O)Nc2c(C)cc(C)c3c2OC(C)(C)C3)cc1 [Ex. 80]
53 | 260 nM | CCCCCCCCCCCCCCCC(=O)Nc1c(C)cc(C)c2c1OC(C)(C)C2 [Ex. 81]
54 | 72 nM | CCCCCCCCCCCCCCCC(=O)Nc1c(C)c(Cl)c(C)c2c1OC(C)(C)C2 [Ex. 83]
55 | 110 nM | CCCCCCCCCCOc1ccc(C(=O)CC(=O)Nc2c(C)cc(C)c3c2OC(C)(C)C3)cc1 [Ex. 88, N-(2,2,4,6-tetramethyl-2,3-dihydrobenzofuran-7-yl)3-(4-decyloxyphenyl)-3-oxpropaneamide]
